Values quoted from earlier work as cited in patent US4761405A, “Antagonists of specific excitatory amino acid neurotransmitter receptors having increased potency” (priority 1987, dated 1988).

What was measured:
[1] = system: audiogenically-induced seizures; conditions: i.c.v. and i.v.; genetically susceptible mice; cited from earlier work
[2] = system: photically-induced myoclonus; conditions: i.v.; baboon; cited from earlier work
[3] = system: electroshock-induced seizures; conditions: mice; cited from earlier work
[4] = system: chemically-induced seizures; conditions: rodents; cited from earlier work
ischemic brain damage = conditions: intrahippocampally; rodent carotid artery occlusion model; cited from earlier work
[5] = system: neurotoxic and convulsive actions of NMDA, IBO and Quin; conditions: in vivo; cited from earlier work

For `N[C@H](CCCCCP(=O)(O)O)C(=O)O` [AP7, D(-)-2-amini-7-phosphonoheptanoic acid], the “Protection against audiogenically-induced seizures” value [1] is given as “protects against audiogenically-induced seizures”, the “Effect on photically-induced myoclonus” value [2] is given as “suppresses photically-induced myoclonus” and the “Effect on threshold current for electroshock-induced seizures” value [3] is given as “increased threshold current for electroshock-induced seizures”. For the same compound, the “Effect on chemically-induced seizures” value [4] was “prevents chemically-induced seizures”, the “Effect on ischemic brain damage” value (ischemic brain damage) was “markedly reduce or eliminate ischemic brain damage” and the “Effect on neurotoxic and convulsive actions of NMDA, IBO and Quin (but not KA)” value [5] was “interferring with the neurotoxic and convulsive actions of NMDA, the exogenous excitotoxin, IBO, and the endogenous excitotoxin Quin (but not KA)”.
